In the supplement of paper PMC8498969:

Assays:
HEK293 [1] = assay: IC50 for inhibition of ZIKV NS1 production
Protocol: (§1)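 HEK293 cells in 1536-well plates were pre-treated with compound for 1 h, infected with ZIKV (MOI 1) for 24 h, and NS1 antigen (intra- plus extracellular) was measured by TR-FRET. Confirmation used 11-point 1:3 dilutions, and IC50 and maximal inhibition were fitted in GraphPad Prism.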

HEK293 [2] = assay: cytotoxicity IC50 (ATP content, uninfected cells); higher = less cytotoxic; conditions: infection: none
HEK293 [3] = assay: maximal inhibition of ZIKV NS1 production (% inhibition); higher = stronger antiviral effect
Protocol: as §1

SMILES | IC50 (HEK293 [1]) [µM] | cytotoxicity IC50 (HEK293 [2]) [µM] | maximal inhibition (HEK293 [3])
CCn1nnc2c(N3CCOCC3)nc(-c3ccc(NC(=O)Nc4ccc(C(=O)N5CCN(C)CC5)cc4)cc3)nc21 | 1.6 | 0.65 | 79
COc1cccc2c1C(=O)c1c(O)c3c(c(O)c1C2=O)C[C@@](O)(C(=O)CO)C[C@@H]3O[C@H]1C[C@H](N)[C@H](O[C@@H]2CCCCO2)[C@H](C)O1 | 5.6 | > 100 | 75
CO[C@H]1[C@H](O)[C@@H](O)[C@H](n2c3c(Cl)cccc3c3c4c(c5c6cccc(Cl)c6[nH]c5c32)C(=O)NC4=O)O[C@@H]1CO | 2.1 | 60 | 90
CCN(CC)CCNC(=O)c1ccc2nc(-c3ccccc3)c(-c3ccc(CN4CCC(n5c(=O)[nH]c6ccccc65)CC4)cc3)nc2c1 | 60 | > 100 | 55
O=C1c2ccccc2-[n+]2ccc3c([nH]c4ccccc43)c21 | 2 | 7.5 | 86
Cc1ccc(C(=O)N(CCCN)[C@@H](c2nc3cc(Cl)ccc3c(=O)n2Cc2ccccc2)C(C)C)cc1 | 0.067 | 37 | 98
Cc1ccc(NC(=O)c2ccc(CN3CCN(C)CC3)cc2)cc1Nc1nccc(-c2cccnc2)n1 | 60 | 41 | 64
CC(C)(C)c1cnc(CSc2cnc(NC(=O)C3CCNCC3)s2)o1 | 1.9 | > 100 | 93
C/C=C(\C)C(=O)N[C@@H](c1ccccc1)[C@@H](O)C(=O)O[C@H]1C[C@@]2(O)[C@@H](OC(=O)c3ccccc3)[C@@H]3[C@]4(OC(C)=O)CO[C@@H]4C[C@H](O)[C@@]3(C)C(=O)[C@H](OC(C)=O)C(=C1C)C2(C)C | 0.22 | > 100 | 67
C=C1C(=O)O[C@H]2[C@H]1CC/C(C)=C/CC[C@@]1(C)O[C@@H]21 | 43 | 20 | 106
CN(Cc1cnc2nc(N)nc(N)c2n1)c1ccc(C(=O)N[C@@H](CCC(=O)O)C(=O)O)cc1 | 0.46 | 0.24 | 95
COc1cccc2c(NCc3ccccc3)nc(-n3c(N)nc4ccccc43)nc12 | 50 | 30 | 100
O=C1NC(=O)/C(=C/c2ccc3nccc(-c4ccncc4)c3c2)S1 | 1.9 | 1.4 | 82
CC(C)(O)/C=C/C(=O)[C@](C)(O)[C@H]1[C@H](O)C[C@@]2(C)[C@@H]3CC=C4[C@@H](C=C(O)C(=O)C4(C)C)[C@]3(C)C(=O)C[C@]12C | 45 | 3 | 52
N=C(N)NN=C(/C=C/c1ccc([N+](=O)[O-])o1)/C=C/c1ccc([N+](=O)[O-])o1 | 3.9 | 3.9 | 102
Nc1nc(F)nc2c1ncn2[C@@H]1O[C@H](CO)[C@@H](O)[C@H]1O | 2.9 | 11 | 98
CC[C@@]1(O)C(=O)OCc2c1cc1n(c2=O)Cc2cc3cc(O)ccc3nc2-1 | 0.047 | > 100 | 100
COc1cccc2nc(-c3cccs3)nc(NN3C(=O)C=C(C)C3=O)c12 | 11 | 50 | 103
CCCOc1ccc2[nH]c(NC(=O)OC)nc2c1 | 4.9 | 86 | 67
Cn1c2ccccc2c2c3c(c4c5ccccc5n(CCC#N)c4c21)CNC3=O | 0.94 | 20 | 82
C#C[C@]1(OC(C)=O)CC[C@H]2[C@@H]3CCC4=C/C(=N/O)CC[C@@H]4[C@H]3CC[C@@]21CC | 43 | > 100 | 48
COCC[n+]1c2c(n(Cc3cnccn3)c1C)C(=O)c1ccccc1C2=O | 0.018 | 0.03 | 104
COc1cccc(-c2ccc(NC(=O)C3=C(C(=O)O)CCC3)c(F)c2)c1 | 4 | 1.9 | 107
CCc1c2c(nc3ccc(OC(=O)N4CCC(N5CCCCC5)CC4)cc13)-c1cc3c(c(=O)n1C2)COC(=O)[C@]3(O)CC | 1.6 | > 100 | 97
Cc1cnc(NC(=O)Nc2cc(Br)c(C)cc2OC[C@@H]2CNCCO2)cn1 | 1.7 | > 100 | 101
COc1cc([C@@H]2c3cc4c(cc3[C@H](O)[C@H]3COC(=O)[C@@H]23)OCO4)cc(OC)c1OC | 2.6 | > 100 | 68
O=[N+]([O-])c1ccc2c(c1)S(=O)(=O)C=C2 | 11 | 7.2 | 103
CC1=C(O)C(=O)C=C2C1=CC=C1[C@@]2(C)CC[C@@]2(C)[C@@H]3C[C@](C)(C(=O)O)CC[C@]3(C)CC[C@]12C | 3.4 | 2.2 | 106

SMILES | IC50 (HEK293 [1]) [µM] | cytotoxicity IC50 (HEK293 [2]) [µM] | maximal inhibition (HEK293 [3])
Cn1c(CCCC(=O)O)nc2cc(N(CCCl)CCCl)ccc21 | 50 | > 100 | 92
Cc1ccc(-c2ncn(-c3ccc(Nc4nccc(-c5cccc(N6CCOCC6)c5)n4)cc3)n2)cn1 | 1.9 | 9.8 | 87
CC1(C(=O)O)C2CCC(O2)C1(C)C(=O)O (stereo not given) | 2.6 | > 100 | 105
O=C1/C(=C/c2ccccc2)C[C@@]2(O)[C@H]3Cc4ccc(O)c5c4[C@@]2(CCN3CC2CC2)[C@H]1O5 | 7.2 | 2.4 | 106
COc1cc([C@@H]2c3cc4c(cc3[C@@H](O[C@@H]3O[C@@H]5CO[C@@H](C)O[C@H]5[C@H](O)[C@H]3O)[C@H]3COC(=O)[C@H]23)OCO4)cc(OC)c1O | 2.2 | > 100 | 102
O=C1c2c(O)ccc(O)c2C(=O)c2c(NCCNCCO)ccc(NCCNCCO)c21 | 0.23 | 50 | 100
Cc1cc2c(F)c(Oc3ncnn4cc(OC[C@@H](C)O)c(C)c34)ccc2[nH]1 | 2.9 | 1.4 | 104
C#CCC(Cc1cnc2nc(N)nc(N)c2n1)c1ccc(C(=O)N[C@@H](CCC(=O)O)C(=O)O)cc1 (stereo not given in full) | 0.45 | 0.46 | 101
O=C1C(Cl)=C(NCCN2CCOCC2)C(=O)c2ncccc21 | 16 | 20 | 104
CSc1cccc(Nc2ncc3cc(-c4c(Cl)cccc4Cl)c(=O)n(C)c3n2)c1 | 8.4 | 6.6 | 98
CN1CCN(Cc2ccc(NC(=O)Nc3ccc(Oc4cc(NC(=O)C5CC5)ncn4)cc3)cc2C(F)(F)F)CC1 | 2.4 | > 100 | 104
O=C(c1ccc(Nc2nccc(-c3cc4ccccc4s3)n2)cc1)N1CCC(N2CCCC2)CC1 | 16 | > 100 | 100
Cc1nc2cnc3ccc(C#Cc4cccnc4)cc3c2n1-c1ccc(C(C)(C)C#N)cc1 | 1.4 | 10 | 102
CN1CC[C@H](c2c(O)cc(O)c3c(=O)cc(-c4ccccc4Cl)oc23)[C@H](O)C1 | 1.2 | > 100 | 93
CC(C)C[C@H](NC(=O)[C@@H](NC(=O)c1cccc(-c2ccccc2)n1)[C@@H](C)O)B(O)O | 0.059 | 0.3 | 95
CNc1ccc2oc(C[C@H]3O[C@@]4(CC[C@H]3C)O[C@H]([C@H](C)C(=O)c3ccc[nH]3)[C@H](C)C[C@H]4C)nc2c1C(=O)O | 6.2 | 20 | 96
c1cnc2c(c1)ccc1cccnc12 | 14 | 3.6 | 99
C[C@@H](Oc1cc(-n2cnc3ccc(CN4CCN(C)CC4)cc32)sc1C(N)=O)c1ccccc1C(F)(F)F | 14 | > 100 | 98
COc1ccc(-c2cc3c(C)nc(N)nc3n([C@H]3CC[C@H](OCCO)CC3)c2=O)cn1 | 1.5 | 0.47 | 78
O=C1C(SCCO)=C(SCCO)C(=O)c2ccccc21 | 5.5 | 5.3 | 97
COc1c(C)c2c(c(O)c1C/C=C(\C)CCC(=O)OCCN1CCOCC1)C(=O)OC2 | 0.53 | > 100 | 105
OCCCNc1cc(-c2ccnc(Nc3cccc(Cl)c3)n2)ccn1 | 0.79 | 60 | 103
O=C(Nc1ncc(-c2cc(C(F)F)nn2-c2c(Cl)cccc2Cl)s1)C1CC1 | 1.2 | > 100 | 92
COc1cc(NS(C)(=O)=O)ccc1Nc1c2ccccc2nc2ccccc12 | 1.4 | 70 | 105
C[C@@H]1C[C@@H]([C@H](O)CC2CC(=O)NC(=O)C2)C(=O)[C@@H](C)C1 | 0.29 | > 100 | 102
CCc1ccc(OCc2ccccc2C(=O)Nc2ccc3nc(C)cc(N)c3c2)cc1 | 14 | 11 | 104
CN(C)CCN(C)C(=O)c1ccc(NC(=O)Nc2ccc(-c3nc(N4CCOCC4)c4ccn(CC(F)(F)F)c4n3)cc2)cc1 | 2.9 | 3.4 | 76
